Target: PD-1/PD-L1 (Homo sapiens, UniProt Q9NZQ7)
Test: PD-1/PD-L1 biochemical protein-protein interaction assay (ALPHA)
Format: binding
Details: 5 nM His tagged PD-L1, 5 nM biotinylated PD-1, 2 hours at 25° C.; read-out: ALPHA-LISA IC50
Method: Compounds were tested in protein-protein interaction assay to determine if they can specifically block the interaction between the extracellular domains of PD-1/PD-L1. Binding of the protein pairs is measured using a bead based amplified luminescent proximity homogeneous assay (ALPHA) platform. Binding of each protein pair results in proximity of the donor and acceptor beads which leads to an increase in ALPHA signal. Assays are performed in 50 mM Tris (pH 7.4), 0.0015% Triton X-100, 0.1% BSA. Final protein concentration in the assays were 5 nM (His tagged PD-L1), 5 nM (biotinylated PD-1), 10 μg/ml ALPHA assay acceptor beads, 10 μg/ml ALPHA assay donor beads. After an assay reaction time of 2 hours at 25° C., binding was measured. The specificity of the binding was determined by testing the compounds in an assay with an irrelevant protein that is both His tagged and biotinylated. The final protein concentration used in the assay was 5 nM, 10 μg/ml ALPHA assay acceptor beads, 10 μg/ml ALPHA assay donor beads. After an assay reaction time of 2 hours at 25° C., binding was measured. IC50 values were calculated from the fit of the dose-response curves to a four-parameter equation.
The specificity of the binding was determined by testing the compounds in an assay with an irrelevant protein that is both His tagged and biotinylated (ErbB3/her3). The final protein concentration used in the assay was 5 nM, 10 μg/mL ALPHA assay acceptor beads, 10 μg/mL ALPHA assay donor beads. After an assay reaction time of 2 hours at 25° C., binding was measured. IC50 values were calculated from the fit of the dose-response curves to a four-parameter equation.

Chain of PD-1/PD-L1 (Q9NZQ7 19-238 limits assumed): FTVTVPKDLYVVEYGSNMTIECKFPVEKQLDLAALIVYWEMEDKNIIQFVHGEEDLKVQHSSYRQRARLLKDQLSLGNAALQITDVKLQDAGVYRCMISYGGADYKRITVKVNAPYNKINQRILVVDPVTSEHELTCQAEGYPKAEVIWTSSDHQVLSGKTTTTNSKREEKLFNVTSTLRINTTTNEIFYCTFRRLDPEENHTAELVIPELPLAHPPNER

IC50 | SMILES
320 nM | N#Cc1cncc(COc2cc(OCc3cccn(-c4ccc5c(c4)OCCO5)c3=O)c(Cl)cc2CN[C@H](CO)C(=O)O)c1 [Compound 207, (5-chloro-2-((5-cyanopyridin-3-yl)methoxy)-4-((1-(2,3-dihydrobenzo[b][1,4]dioxin-6-yl)-2-oxo-1,2-dihydropyridin-3-yl)methoxy)benzyl)-D-serine]
300 nM | N#Cc1cccc(COc2cc(OCc3cccn(-c4ccc5c(c4)OCCO5)c3=O)c(Cl)cc2CN[C@H](CO)C(=O)O)c1 [Compound 202, (5-chloro-2-((3-cyanobenzyl)oxy)-4-((1-(2,3-dihydrobenzo[b][1,4]dioxin-6-yl)-2-oxo-1,2-dihydropyridin-3-yl)methoxy)benzyl)-D-serine]
1100 nM | Cc1cc(CN[C@H](CO)C(=O)O)c(OCc2cccc(C#N)c2)cc1OCc1cccn(-c2ccc3c(c2)OCCO3)c1=O [Compound 7, (2-((3-cyanobenzyl)oxy)-4-((1-(2,3-dihydrobenzo[b][1,4]dioxin-6-yl)-2-oxo-1,2-dihydropyridin-3-yl)methoxy)-5-methylbenzyl)-D-serine]
1200 nM | Cc1cc(CN[C@](C)(CO)C(=O)O)c(OCc2cccc(C#N)c2)cc1OCc1cccn(-c2ccc3c(c2)OCCO3)c1=O [Compound 9, (R)-2-((2-((3-cyanobenzyl)oxy)-4-((1-(2,3-dihydrobenzo[b][1,4]dioxin-6-yl)-2-oxo-1,2-dihydropyridin-3-yl)methoxy)-5-methylbenzyl)amino)-3-hydroxy-2-methylpropanoic acid]
550 nM | O=C(O)[C@@H](CO)NCc1cc(Cl)c(OCc2cccn(-c3ccc4c(c3)OCCO4)c2=O)cc1OCc1cncc(-n2ccnn2)c1 [Compound 209]
3600 nM | CC(C)c1cc(CN[C@H](CO)C(=O)O)c(OCc2cccc(C#N)c2)cc1OCc1cccn(-c2ccc3c(c2)OCCO3)c1=O [Compound 204]
2700 nM | CCc1cc(CN[C@H](CO)C(=O)O)c(OCc2cccc(C#N)c2)cc1OCc1cccn(-c2ccc3c(c2)OCCO3)c1=O [Compound 203]
1600 nM | Cc1cc(CN(C)[C@@H](CO)C(=O)O)c(OCc2cccc(C#N)c2)cc1OCc1cccn(-c2ccc3c(c2)OCCO3)c1=O [Compound 12]
3400 nM | Cc1cc(CN2C[C@H](O)C[C@@H]2C(=O)O)c(OCc2cccc(C#N)c2)cc1OCc1cccn(-c2ccc3c(c2)OCCO3)c1=O [Compound 8, (2R,4R)-1-(2-((3-cyanobenzyl)oxy)-4-((1-(2,3-dihydrobenzo[b][1,4]dioxin-6-yl)-2-oxo-1,2-dihydropyridin-3-yl)methoxy)-5-methylbenzyl)-4-hydroxypyrrolidine-2-carboxylic acid]
1000 nM | Cc1cc(CN[C@H](CO)C(=O)O)c(OCc2cccnc2)cc1OCc1cccn(-c2ccc3c(c2)OCCO3)c1=O [Compound 103, (4-((1-(2,3-dihydrobenzo[b][1,4]dioxin-6-yl)-2-oxo-1,2-dihydropyridin-3-yl)methoxy)-5-methyl-2-(pyridin-3-ylmethoxy)benzyl)-D-serine]
3900 nM | Cc1cc(CN[C@@H](C)C(=O)O)c(OCc2cccc(C#N)c2)cc1OCc1cccn(-c2ccc3c(c2)OCCO3)c1=O [Compound 11]
1200 nM | Cc1cc(CN[C@@H](CO)C(=O)O)c(OCc2cccc(C#N)c2)cc1OCc1cccn(-c2ccc3c(c2)OCCO3)c1=O [Compound 10, (2-((3-cyanobenzyl)oxy)-4-((1-(2,3-dihydrobenzo[b][1,4]dioxin-6-yl)-2-oxo-1,2-dihydropyridin-3-yl)methoxy)-5-methylbenzyl)-L-serine]
360 nM | N#Cc1cccc(COc2cc(OCc3cccn(-c4ccc5c(c4)OCCO5)c3=O)c(Cl)cc2CNC[C@@H]2CCC(=O)N2)c1 [Compound 205, (S)-3-((4-chloro-5-((1-(2,3-dihydrobenzo[b][1,4]dioxin-6-yl)-2-oxo-1,2-dihydropyridin-3-yl)methoxy)-2-((((5-oxopyrrolidin-2-yl)methyl)amino)methyl)phenoxy)methyl)benzonitrile]
3000 nM | Cc1cc(CN[C@H](CO)C(=O)O)c(OCc2cccc(Cl)c2)cc1OCc1cccn(-c2ccc3c(c2)OCCO3)c1=O [Compound 101, (2-((3-chlorobenzyl)oxy)-4-((1-(2,3-dihydrobenzo[b][1,4]dioxin-6-yl)-2-oxo-1,2-dihydropyridin-3-yl)methoxy)-5-methylbenzyl)-D-serine]

— US20220233684A1, “COMBINATION OF HEPATITIS B VIRUS (HBV) VACCINES AND PD-L1 INHIBITORS” (Janssen Sciences Ireland Unlimited Company, priority 2019, published 2022)
